The values that follow come from PMC11299231 (Steroids, 2024).

One series deals with T84 wt. Nature of the series: Antiproliferative activity assay. The series is classed as cell-based, human. As to conditions: for IC50: 48 h, read-out: IC50 ± SEM, T84 wt.
The subject of the next series is HaCaT. Nature of the series: Antiproliferative activity assay. Type of series: cell-based, human. As to conditions: for IC50: 48 h, read-out: IC50 ± SEM, HaCaT.
The subject of another series is PC3 (AR-). Description: Antiproliferative activity assay. Type of series: cell-based, human. The settings on record: for IC50: 48 h, read-out: IC50 ± SEM, PC3 (AR−).
A further series concerns DU145 (AR-). Description: Antiproliferative activity assay. Type of series: cell-based, human. The settings on record: for IC50: read-out: IC50 ± SEM, DU145 (AR−).
The next series relates to HT-29. Description: Antiproliferative activity assay. As to conditions: read-out: IC50 ± SEM, HT-29. The series is classed as cell-based, human.
A further series relates to M21. Nature of the series: Antiproliferative activity assay. As to conditions: read-out: IC50 ± SEM, M21. The series is classed as cell-based, human.
The target in series [1] is T1, CYP3A4 (Homo sapiens, UniProt P08684). As to conditions: read-out: IC50, BFC debenzylation activity of CYP3A4; soluble reconstituted system, 37 °C, BFC substrate.
T1 sequence (P08684 whole entry): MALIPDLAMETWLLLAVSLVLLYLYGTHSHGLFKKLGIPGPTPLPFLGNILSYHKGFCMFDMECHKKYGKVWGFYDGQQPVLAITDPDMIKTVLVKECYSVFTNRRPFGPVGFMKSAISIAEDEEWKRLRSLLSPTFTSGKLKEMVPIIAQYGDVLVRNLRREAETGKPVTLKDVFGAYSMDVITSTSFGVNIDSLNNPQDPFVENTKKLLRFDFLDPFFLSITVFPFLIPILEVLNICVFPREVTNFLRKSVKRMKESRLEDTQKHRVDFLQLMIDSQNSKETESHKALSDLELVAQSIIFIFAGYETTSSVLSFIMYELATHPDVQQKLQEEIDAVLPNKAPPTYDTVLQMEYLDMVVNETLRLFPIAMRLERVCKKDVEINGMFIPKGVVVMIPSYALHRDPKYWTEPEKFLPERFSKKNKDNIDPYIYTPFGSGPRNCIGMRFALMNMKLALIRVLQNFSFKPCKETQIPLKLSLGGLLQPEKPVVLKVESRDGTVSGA
Series [2] concerns the target T1, CYP3A4. The settings on record: Soret band blue shift, recombinant CYP3A4.
A further series concerns LNCaP (AR + ). Description: Antiproliferative activity assay. Type of series: cell-based, human. As to conditions: read-out: IC50 ± SEM, LNCaP (AR + ); prostate adenocarcinoma cells, 48 h, SRB.
The next series has as its system MCF7 (ER + ). Nature of the series: Antiproliferative activity assay. The series is classed as cell-based, human. The settings on record: read-out: IC50 ± SEM, MCF7 (ER + ).
A further series relates to MDA-MB-231 (ER-). Description: Antiproliferative activity assay. The series is classed as cell-based, human. The settings on record: read-out: IC50 ± SEM, MDA-MB-231 (ER−).
Where [3] appears, read: at the maximal concentration tested (5 μM).
[4] abbreviates: at the maximum concentration tested (5 μM).
[5] abbreviates: breast carcinoma cells, 48 h, SRB.

Like-named read-outs stand apart in the source and are kept apart here.

As to `CC(O)(CS(=O)(=O)c1ccc(F)cc1)C(=O)Nc1ccc(C#N)c(C(F)(F)F)c1` (centres unmarked) [Bicalutamide, bicalutamide, reference compound], the IC50 amounted to 56 ± 2 µM in the series with T84 wt (Homo sapiens); 95 ± 5 µM with HaCaT (Homo sapiens, HaCaT); 62 ± 3 µM in the series on PC3 (AR-) (Homo sapiens, PC3/AR); 52 ± 1 µM in the series on DU145 (AR-) (Homo sapiens, DU-145, 48 h); 42 ± 2 µM in the series with HT-29 (Homo sapiens, HT-29, 48 h); 49 ± 1 µM with M21 (Homo sapiens, M21, 48 h).

As to `C[C@]12CC[C@H]3[C@@H]([C@H](C/C=C/Cn4cc([C@]5(O)CC[C@H]6[C@@H]7CCc8cc(O)ccc8[C@H]7CC[C@@]65C)nn4)CC4=CC(=O)CC[C@@]43C)[C@@H]1CC[C@@H]2O` [Compound 1, (E)-17β-hydroxy-7α-{4-[4-(estradiol-17α-yl)-[1,2,3]triazol-1-yl]-but-2-enyl}−4-androsten-3-one], in the series on T84 wt (setting [3]), the “antiproliferative activity on T84 wt cells” value was “inactive”. The IC50 was > 5 µM in the series on T84 wt (colon adenocarcinoma cells, SRB); > 5 µM on CYP3A4 [1]; > 5 µM with HaCaT (normal immortalized human keratinocytes, SRB); > 5 µM in the series with PC3 (AR-) (prostate adenocarcinoma cells, SRB); > 5 µM in the series with LNCaP (AR + ); 4.9 ± 0.4 µM with MCF7 (ER + ) (setting [5]). Besides, the IC50 in the series on DU145 (AR-) (prostate adenocarcinoma cells, 48 h, SRB) was > 5 µM; in the series on HT-29 (colon carcinoma cells, 48 h, SRB), 3.5 ± 0.1 µM; in the series on M21 (melanoma cells, 48 h, SRB) it was 2.3 ± 0.1 µM; with MDA-MB-231 (ER-) (setting [5]) it was > 5 µM. In addition, the “antiproliferative activity on HaCaT cells” value in the series on HaCaT (setting [3]) is “inactive”. For the same compound, the high-spin shift on CYP3A4 [2] is listed as 23%. The “antiproliferative effect on PC3 (AR-) cells” value in the series with PC3 (AR-) (setting [4]) is recorded as “no effect”. For the same compound, in the series with DU145 (AR-) (setting [4]), the “antiproliferative effect on DU145 (AR-) cells” value is recorded as “no effect”.

Turning to `CC/C(=C(\c1ccc(O)cc1)c1ccc(OCCN(C)C)cc1)c1ccccc1` [Compound 4-OHT, 4-hydroxytamoxifen, reference compound], the half-inhibitory concentration (IC50) in the series on T84 wt (Homo sapiens) amounted to 6.9 ± 0.3 µM; with HaCaT (Homo sapiens, HaCaT), 10.4 ± 0.6 µM; in the series with PC3 (AR-) (Homo sapiens, PC3/AR) it was 13 ± 1 µM; with MCF7 (ER + ) (Homo sapiens, MCF7, 48 h) it was 0.013 ± 0.005 µM; in the series on DU145 (AR-) (Homo sapiens, DU-145, 48 h), 13 ± 1 µM; with HT-29 (Homo sapiens, HT-29, 48 h), 0.9 ± 0.2 µM. Moreover, the IC50 in the series with M21 (Homo sapiens, M21, 48 h) is 4.2 ± 0.2 µM; in the series with MDA-MB-231 (ER-) (Homo sapiens, MDA-MB-231, 48 h) it was 7 ± 1 µM.
